Assay results published in the NIST ThermoML archive (doi:10.1016/j.jct.2005.10.006).
Numbers after ± are expanded uncertainties.

Test: xn = mol fraction of the nth substance listed
Settings: Fluid (supercritical or subcritical phases), Spherical resonator

N#N [nitrogen] + C
Settings	speed of sound [m/s]
250 K, 30044 kPa, x1 = 0.1	707.81 ± 1.1
250 K, 30196 kPa, x1 = 0.2	665.27 ± 1.1
275 K, 105.1 kPa, x1 = 0.2	405.31 ± 0.67
275 K, 249.6 kPa, x1 = 0.2	404.93 ± 0.67
275 K, 498.5 kPa, x1 = 0.1	416.53 ± 0.68
275 K, 498.5 kPa, x1 = 0.2	404.25 ± 0.67
275 K, 998 kPa, x1 = 0.2	402.93 ± 0.66
275 K, 998.1 kPa, x1 = 0.1	414.81 ± 0.68
275 K, 1999 kPa, x1 = 0.1	411.66 ± 0.68
275 K, 2001 kPa, x1 = 0.2	400.6 ± 0.66
275 K, 3010 kPa, x1 = 0.2	398.72 ± 0.66
275 K, 3012 kPa, x1 = 0.1	408.95 ± 0.67
275 K, 4014 kPa, x1 = 0.2	397.39 ± 0.65
275 K, 4024 kPa, x1 = 0.1	406.81 ± 0.67
275 K, 5030 kPa, x1 = 0.2	396.69 ± 0.65
275 K, 6045 kPa, x1 = 0.2	396.72 ± 0.65
275 K, 6053 kPa, x1 = 0.1	404.7 ± 0.67
275 K, 7052 kPa, x1 = 0.2	397.57 ± 0.65
275 K, 8005 kPa, x1 = 0.1	406.18 ± 0.67
275 K, 8072 kPa, x1 = 0.2	399.34 ± 0.66
275 K, 9089 kPa, x1 = 0.2	402.1 ± 0.66
275 K, 9957 kPa, x1 = 0.1	411.99 ± 0.68
275 K, 10115 kPa, x1 = 0.2	405.96 ± 0.67
275 K, 11147 kPa, x1 = 0.2	410.97 ± 0.68
275 K, 12035 kPa, x1 = 0.1	423.61 ± 0.7
275 K, 12036 kPa, x1 = 0.1	423.62 ± 0.7
275 K, 12160 kPa, x1 = 0.2	416.99 ± 0.68
275 K, 13171 kPa, x1 = 0.2	424.08 ± 0.7
275 K, 14013 kPa, x1 = 0.2	430.77 ± 0.71
275 K, 14111 kPa, x1 = 0.1	440.93 ± 0.72
275 K, 15003 kPa, x1 = 0.2	439.49 ± 0.72
275 K, 15988 kPa, x1 = 0.1	460.87 ± 0.75
275 K, 15990 kPa, x1 = 0.2	449 ± 0.74
275 K, 17009 kPa, x1 = 0.2	459.59 ± 0.75
275 K, 17997 kPa, x1 = 0.2	470.47 ± 0.77
275 K, 18033 kPa, x1 = 0.1	486.14 ± 0.79
275 K, 19084 kPa, x1 = 0.2	483.04 ± 0.79
275 K, 19680 kPa, x1 = 0.2	490.13 ± 0.8
275 K, 20228 kPa, x1 = 0.1	515.84 ± 0.84
275 K, 24821 kPa, x1 = 0.1	581.11 ± 0.95
275 K, 29257 kPa, x1 = 0.1	642.82 ± 1
275 K, 29972 kPa, x1 = 0.2	619.3 ± 1
300 K, 199.5 kPa, x1 = 0.1	434.92 ± 0.71
300 K, 248.5 kPa, x1 = 0.2	421.88 ± 0.69
300 K, 480.1 kPa, x1 = 0.5422	386.4 ± 0.64
300 K, 498 kPa, x1 = 0.1	434.24 ± 0.71
300 K, 498.6 kPa, x1 = 0.2	421.47 ± 0.69
300 K, 707.5 kPa, x1 = 0.5422	386.45 ± 0.64
300 K, 996.8 kPa, x1 = 0.1	433.15 ± 0.71
300 K, 1191 kPa, x1 = 0.5422	386.59 ± 0.64
300 K, 1998 kPa, x1 = 0.1	431.25 ± 0.71
300 K, 1999 kPa, x1 = 0.2	419.47 ± 0.69
300 K, 2344 kPa, x1 = 0.5422	387.23 ± 0.64
300 K, 3003 kPa, x1 = 0.1	429.75 ± 0.7
300 K, 4015 kPa, x1 = 0.2	418.25 ± 0.69
300 K, 4016 kPa, x1 = 0.1	428.73 ± 0.7
300 K, 4632 kPa, x1 = 0.5422	389.87 ± 0.64
300 K, 5019 kPa, x1 = 0.1	428.26 ± 0.7
300 K, 6030 kPa, x1 = 0.1	428.38 ± 0.7
300 K, 6037 kPa, x1 = 0.2	419.02 ± 0.69
300 K, 6838 kPa, x1 = 0.5422	394.27 ± 0.65
300 K, 7046 kPa, x1 = 0.1	429.17 ± 0.7
300 K, 8068 kPa, x1 = 0.2	422.18 ± 0.69
300 K, 8086 kPa, x1 = 0.1	430.75 ± 0.71
300 K, 8994 kPa, x1 = 0.5422	400.43 ± 0.66
300 K, 10104 kPa, x1 = 0.2	428.03 ± 0.7
300 K, 10134 kPa, x1 = 0.1	436.25 ± 0.71
300 K, 11262 kPa, x1 = 0.5422	408.61 ± 0.67
300 K, 11983 kPa, x1 = 0.2	435.96 ± 0.71
300 K, 12193 kPa, x1 = 0.1	445.26 ± 0.73
300 K, 14023 kPa, x1 = 0.2	447.31 ± 0.73
300 K, 14237 kPa, x1 = 0.1	457.66 ± 0.75
300 K, 16022 kPa, x1 = 0.2	461.03 ± 0.75
300 K, 16322 kPa, x1 = 0.1	473.66 ± 0.77
300 K, 17969 kPa, x1 = 0.2	476.54 ± 0.78
300 K, 18326 kPa, x1 = 0.1	491.78 ± 0.8
300 K, 19736 kPa, x1 = 0.2	492.16 ± 0.8
300 K, 19924 kPa, x1 = 0.1	507.75 ± 0.83
300 K, 24934 kPa, x1 = 0.1	563.32 ± 0.92
300 K, 30250 kPa, x1 = 0.1	625.49 ± 1
350 K, 202.3 kPa, x1 = 0.1	466.26 ± 0.76
350 K, 248.7 kPa, x1 = 0.2	452.58 ± 0.74
350 K, 498.6 kPa, x1 = 0.2	452.54 ± 0.74
350 K, 502 kPa, x1 = 0.1	466.1 ± 0.76
350 K, 552.3 kPa, x1 = 0.5422	415.67 ± 0.68
350 K, 814.8 kPa, x1 = 0.5422	415.97 ± 0.68
350 K, 1001 kPa, x1 = 0.1	465.83 ± 0.76
350 K, 1374 kPa, x1 = 0.5422	416.67 ± 0.68
350 K, 1999 kPa, x1 = 0.2	452.66 ± 0.74
350 K, 2001 kPa, x1 = 0.1	465.52 ± 0.76
350 K, 2717 kPa, x1 = 0.5422	418.62 ± 0.69
350 K, 3007 kPa, x1 = 0.1	465.52 ± 0.76
350 K, 4009 kPa, x1 = 0.2	453.86 ± 0.74
350 K, 4012 kPa, x1 = 0.1	465.86 ± 0.76
350 K, 5419 kPa, x1 = 0.5422	423.85 ± 0.7
350 K, 6023 kPa, x1 = 0.1	467.64 ± 0.76
350 K, 6042 kPa, x1 = 0.2	456.41 ± 0.75
350 K, 8048 kPa, x1 = 0.1	471.02 ± 0.77
350 K, 8070 kPa, x1 = 0.5422	430.68 ± 0.71
350 K, 8140 kPa, x1 = 0.2	460.55 ± 0.75
350 K, 9931 kPa, x1 = 0.2	465.36 ± 0.76
350 K, 10069 kPa, x1 = 0.1	476.07 ± 0.78
350 K, 10144 kPa, x1 = 0.2	466.02 ± 0.76
350 K, 12122 kPa, x1 = 0.1	482.98 ± 0.79
350 K, 12140 kPa, x1 = 0.2	472.93 ± 0.77
350 K, 13507 kPa, x1 = 0.5422	449.48 ± 0.74
350 K, 14143 kPa, x1 = 0.1	491.53 ± 0.8
350 K, 14157 kPa, x1 = 0.2	481.39 ± 0.79
350 K, 16162 kPa, x1 = 0.2	491.18 ± 0.8
350 K, 16179 kPa, x1 = 0.1	501.83 ± 0.82
350 K, 17867 kPa, x1 = 0.2	500.53 ± 0.81
350 K, 18210 kPa, x1 = 0.1	513.66 ± 0.83
350 K, 19448 kPa, x1 = 0.2	509.95 ± 0.83
350 K, 19809 kPa, x1 = 0.1	523.96 ± 0.85
400 K, 199.4 kPa, x1 = 0.1	494.39 ± 0.8
400 K, 231.4 kPa, x1 = 0.2	480.07 ± 0.78
400 K, 497.1 kPa, x1 = 0.1	494.48 ± 0.8
400 K, 501.8 kPa, x1 = 0.2	480.26 ± 0.78
400 K, 622 kPa, x1 = 0.5422	442.06 ± 0.72
400 K, 918.4 kPa, x1 = 0.5422	442.56 ± 0.72
400 K, 995.6 kPa, x1 = 0.1	494.7 ± 0.81
400 K, 1551 kPa, x1 = 0.5422	443.69 ± 0.73
400 K, 1990 kPa, x1 = 0.1	495.31 ± 0.81
400 K, 2005 kPa, x1 = 0.2	481.61 ± 0.78
400 K, 2989 kPa, x1 = 0.1	496.16 ± 0.81
400 K, 3075 kPa, x1 = 0.5422	446.66 ± 0.73
400 K, 3994 kPa, x1 = 0.1	497.25 ± 0.81
400 K, 4015 kPa, x1 = 0.2	484.18 ± 0.79
400 K, 6011 kPa, x1 = 0.1	500.22 ± 0.81
400 K, 6027 kPa, x1 = 0.2	487.68 ± 0.79
400 K, 6170 kPa, x1 = 0.5422	453.88 ± 0.74
400 K, 8012 kPa, x1 = 0.1	504.2 ± 0.82
400 K, 8046 kPa, x1 = 0.2	492.14 ± 0.8
400 K, 9240 kPa, x1 = 0.5422	462.55 ± 0.76
400 K, 10023 kPa, x1 = 0.1	509.28 ± 0.83
400 K, 10077 kPa, x1 = 0.2	497.61 ± 0.81
400 K, 12004 kPa, x1 = 0.2	503.66 ± 0.82
400 K, 12054 kPa, x1 = 0.1	515.5 ± 0.84
400 K, 14084 kPa, x1 = 0.1	522.78 ± 0.85
400 K, 14562 kPa, x1 = 0.2	513.02 ± 0.83
400 K, 15633 kPa, x1 = 0.5422	484.69 ± 0.79
400 K, 16027 kPa, x1 = 0.2	519 ± 0.84
400 K, 16081 kPa, x1 = 0.1	530.96 ± 0.86
400 K, 16082 kPa, x1 = 0.1	530.96 ± 0.86
400 K, 18039 kPa, x1 = 0.2	527.93 ± 0.86
400 K, 18052 kPa, x1 = 0.1	539.93 ± 0.88
400 K, 19788 kPa, x1 = 0.1	548.54 ± 0.89
400 K, 20114 kPa, x1 = 0.2	537.94 ± 0.87
